≈ marks a conversion by molar mass, not a printed value. Calls of active or inactive are those of the source. No cut-off for these calls is given here.
What was measured:
Mycobacterium gordonae = experiment: Antimycobacterial activity against Mycobacterium gordonae NCTC 10267 after 7 days by resazurin microtiter assay; format: functional; settings: NCTC 10267, 168 h
[1] = system: Mycobacterium scrofulaceum; experiment: Antimycobacterial activity against Mycobacterium scrofulaceum NCTC 10803 after 7 days by resazurin microtiter assay; format: functional; settings: 168 h
Mycobacterium kansasii = experiment: Antimycobacterial activity against Mycobacterium kansasii NCTC 10268 after 7 days by resazurin microtiter assay; format: functional; settings: NCTC 10268, 168 h
Mycobacterium marinum = experiment: Antimycobacterial activity against Mycobacterium marinum CIP 6423 after 7 days by resazurin microtiter assay; format: functional; settings: CIP 6423, 168 h
Mycobacterium avium = experiment: Antimycobacterial activity against Mycobacterium avium NCTC 08559 after 7 days by resazurin microtiter assay; format: functional; settings: NCTC 08559, 168 h
[2] = Cytotoxicity against African green monkey Vero cells after 72 hrs by MTT assay; format: cell-based; settings: chlorocebus sabaeus
[3] = target: T1, Sterol 14alpha-demethylase (Mycobacterium tuberculosis) (UniProt P9WPP9); experiment: Binding affinity to N-terminal His-tagged Mycobacterium tuberculosis H37Rv ATCC 25618 CYP51 expressed in Escherichia coli Rosetta (DE3) by spectrophotometric analysis
T1 sequence (whole entry): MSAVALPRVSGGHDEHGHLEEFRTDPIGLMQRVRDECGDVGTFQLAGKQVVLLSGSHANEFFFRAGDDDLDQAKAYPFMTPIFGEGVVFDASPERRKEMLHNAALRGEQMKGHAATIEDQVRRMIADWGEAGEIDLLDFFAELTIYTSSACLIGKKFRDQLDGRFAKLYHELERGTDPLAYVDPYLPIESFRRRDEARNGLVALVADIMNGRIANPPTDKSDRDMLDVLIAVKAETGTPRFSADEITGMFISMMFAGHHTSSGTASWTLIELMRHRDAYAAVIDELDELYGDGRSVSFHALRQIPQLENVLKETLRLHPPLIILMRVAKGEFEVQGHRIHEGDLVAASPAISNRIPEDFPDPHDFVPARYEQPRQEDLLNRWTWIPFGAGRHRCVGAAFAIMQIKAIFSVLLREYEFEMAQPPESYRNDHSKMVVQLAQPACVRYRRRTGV

Staphylococcus aureus [4] = experiment: Antimicrobial activity against Staphylococcus aureus ATCC 25923 at 20 ug per disk after 18 to 24 hrs by agar diffusion assay; format: functional; settings: read-out: DIZ
Escherichia coli [5] = experiment: Antimicrobial activity against Escherichia coli ATCC 25922 at 20 ug per disk after 18 to 24 hrs by agar diffusion assay; format: functional; settings: read-out: DIZ
Candida albicans = experiment: Antimicrobial activity against Candida albicans 685 clinical isolate at 20 ug per disk after 18 to 24 hrs by agar diffusion assay; format: functional; settings: read-out: DIZ
[6] = system: Mycobacterium tuberculosis; experiment: Antimycobacterial activity against Mycobacterium tuberculosis H37Ra […] after 7 days by resazurin microtiter assay; format: functional; settings: 168 h
[7] = system: Mycobacterium intracellulare; experiment: Antimycobacterial activity against Mycobacterium intracellulare NCTC 10425 after 7 days by resazurin microtiter assay; format: functional; settings: NCTC 10425, 168 h
Staphylococcus aureus [8] = experiment: Antimicrobial activity against Staphylococcus aureus ATCC 25923 at 30 ug per disk after 18 to 24 hrs by agar diffusion assay; format: functional; settings: read-out: DIZ
Escherichia coli [9] = experiment: Antimicrobial activity against Escherichia coli ATCC 25922 at 30 ug per disk after 18 to 24 hrs by agar diffusion assay; format: functional; settings: read-out: DIZ

Row | Compound | MIC (Mycobacterium gordonae) | MIC [1] | MIC (Mycobacterium kansasii) | MIC (Mycobacterium marinum) | MIC (Mycobacterium avium) | CC50 at 72 h [2] | Activity [3] | zone of inhibition at 20 µg/disc (Staphylococcus aureus [4]) | zone of inhibition at 20 µg/disc (Escherichia coli [5]) | zone of inhibition at 20 µg/disc (Candida albicans) | MIC [6] | MIC [7] | zone of inhibition at 30 µg/disc (Staphylococcus aureus [8]) | zone of inhibition at 30 µg/disc (Escherichia coli [9])
1 | N/C(=N/NC(CC(=O)c1ccc(-n2ccnc2)cc1)c1ccccc1F)c1ccccn1 (stereo unspecified) | 4.7 µM (≈ 2.01 µg/mL) | 18.7 µM (≈ 8.01 µg/mL) | 18.7 µM (≈ 8.01 µg/mL) | 18.7 µM (≈ 8.01 µg/mL) | 74.7 µM (≈ 32 µg/mL) | 62.1 µM | inactive | 14 mm | 7 mm | 5 mm | 17.6 µM (≈ 7.54 µg/mL) | 74.7 µM (≈ 32 µg/mL) | – | –
2 | N/C(=N/NC(CC(=O)c1ccc(-n2ccnc2)cc1)c1cccc([N+](=O)[O-])c1)c1ccccn1 (stereo unspecified) | 8.8 µM (≈ 4.01 µg/mL) | 8.8 µM (≈ 4.01 µg/mL) | 8.8 µM (≈ 4.01 µg/mL) | 35.1 µM (≈ 16 µg/mL) | 140 µM (≈ 63.8 µg/mL) | 28.7 µM | inactive | 13 mm | 5 mm | 10 mm | 4.4 µM (≈ 2 µg/mL) | > 140 µM | – | –
3 | N/C(=N/NC(CC(=O)c1ccc(-n2ccnc2)cc1)c1cccc(Br)c1)c1ccccn1 (stereo unspecified) | 2 µM (≈ 0.979 µg/mL) | 32.7 µM (≈ 16 µg/mL) | 16.3 µM (≈ 7.98 µg/mL) | 16.3 µM (≈ 7.98 µg/mL) | 131 µM (≈ 64.1 µg/mL) | 51.3 µM | inactive | 19 mm | 8 mm | 13 mm | 16.3 µM (≈ 7.98 µg/mL) | 131 µM (≈ 64.1 µg/mL) | – | –
4 | N/C(=N/NC(CC(=O)c1ccc(-n2ccnc2)cc1)c1ccccc1Br)c1ccccn1 (stereo unspecified) | 8.2 µM (≈ 4.01 µg/mL) | 16.3 µM (≈ 7.98 µg/mL) | 16.3 µM (≈ 7.98 µg/mL) | 16.3 µM (≈ 7.98 µg/mL) | 65.4 µM (≈ 32 µg/mL) | 29 µM | inactive | 19 mm | 5 mm | 8 mm | 32.7 µM (≈ 16 µg/mL) | 131 µM (≈ 64.1 µg/mL) | – | –
5 | N/C(=N/NC(CC(=O)c1ccc(-n2ccnc2)cc1)c1ccccc1Cl)c1ccccn1 (stereo unspecified) | 18 µM (≈ 8.01 µg/mL) | 18 µM (≈ 8.01 µg/mL) | 18 µM (≈ 8.01 µg/mL) | 18 µM (≈ 8.01 µg/mL) | 72 µM (≈ 32 µg/mL) | 53.2 µM | inactive | 20 mm | 6 mm | 7 mm | 36 µM (≈ 16 µg/mL) | 144 µM (≈ 64.1 µg/mL) | – | –
6 | CC(=O)OCC1=C(C(=O)O)N2C(=O)[C@@H](NC(=O)Cc3cccs3)[C@H]2SC1 [CEPHALOTHIN] | – | – | – | – | – | – | – | – | – | – | – | – | 31 mm | 11 mm
7 | N/C(=N/NC(CC(=O)c1ccc(-n2ccnc2)cc1)c1ccc(Cl)cc1)c1ccccn1 (stereo unspecified) | 4.5 µM (≈ 2 µg/mL) | 18 µM (≈ 8.01 µg/mL) | 9 µM (≈ 4 µg/mL) | 18 µM (≈ 8.01 µg/mL) | 72 µM (≈ 32 µg/mL) | 78.8 µM | inactive | 20 mm | 8 mm | 9 mm | 9 µM (≈ 4 µg/mL) | 72 µM (≈ 32 µg/mL) | – | –
8 | N/C(=N/NC(CC(=O)c1ccc(-n2ccnc2)cc1)c1ccccc1)c1ccccn1 (stereo unspecified) | 9.7 µM (≈ 3.98 µg/mL) | 19.5 µM (≈ 8 µg/mL) | 19.5 µM (≈ 8 µg/mL) | 19.5 µM (≈ 8 µg/mL) | 78 µM (≈ 32 µg/mL) | 63.5 µM | inactive | 14 mm | 7 mm | 5 mm | 19.5 µM (≈ 8 µg/mL) | 78 µM (≈ 32 µg/mL) | – | –
9 | N/C(=N/NC(CC(=O)c1ccc(-n2ccnc2)cc1)c1ccc([N+](=O)[O-])cc1)c1ccccn1 (stereo unspecified) | 8.8 µM (≈ 4.01 µg/mL) | 8.8 µM (≈ 4.01 µg/mL) | 35.1 µM (≈ 16 µg/mL) | 35.1 µM (≈ 16 µg/mL) | 140 µM (≈ 63.8 µg/mL) | 23.1 µM | inactive | 13 mm | 5 mm | 5 mm | 4.4 µM (≈ 2 µg/mL) | > 140 µM | – | –
10 | Clc1ccc(COC(Cn2ccnc2)c2ccc(Cl)cc2Cl)cc1 (stereo unspecified) | – | – | – | – | – | – | Active | – | – | – | – | – | – | –
11 | NNC(=O)c1ccncc1 [ISONIAZID] | 116 µM (≈ 15.9 µg/mL) | 116 µM (≈ 15.9 µg/mL) | – | 116 µM (≈ 15.9 µg/mL) | 116 µM (≈ 15.9 µg/mL) | > 7000 µM | – | – | – | – | 0.9 µM (≈ 0.123 µg/mL) | > 467 µM | – | –
12 | N/C(=N/NC(CC(=O)c1ccc(-n2ccnc2)cc1)c1ccc(F)cc1)c1ccccn1 (stereo unspecified) | 18.7 µM (≈ 8.01 µg/mL) | 18.7 µM (≈ 8.01 µg/mL) | 9.3 µM (≈ 3.98 µg/mL) | 18.7 µM (≈ 8.01 µg/mL) | 74.7 µM (≈ 32 µg/mL) | 78.8 µM | inactive | 20 mm | 6 mm | 6 mm | 9.3 µM (≈ 3.98 µg/mL) | 74.7 µM (≈ 32 µg/mL) | – | –
13 | N/C(=N/NC(CC(=O)c1ccc(-n2ccnc2)cc1)c1cccc(Cl)c1)c1ccccn1 (stereo unspecified) | 4.5 µM (≈ 2 µg/mL) | 18 µM (≈ 8.01 µg/mL) | 9 µM (≈ 4 µg/mL) | 18 µM (≈ 8.01 µg/mL) | 72 µM (≈ 32 µg/mL) | 68.6 µM | inactive | 22 mm | 7 mm | 11 mm | 18 µM (≈ 8.01 µg/mL) | 72 µM (≈ 32 µg/mL) | – | –
14 | N/C(=N/NC(CC(=O)c1ccc(-n2ccnc2)cc1)c1ccc(Cl)cc1Cl)c1ccccn1 (stereo unspecified) | 9 µM (≈ 4.31 µg/mL) | 16.7 µM (≈ 8.01 µg/mL) | 4.2 µM (≈ 2.01 µg/mL) | 33.3 µM (≈ 16 µg/mL) | 33.3 µM (≈ 16 µg/mL) | 27.8 µM | inactive | 17 mm | 6 mm | 8 mm | 9 µM (≈ 4.31 µg/mL) | 33.3 µM (≈ 16 µg/mL) | – | –
15 | N/C(=N/NC(CC(=O)c1ccc(-n2ccnc2)cc1)c1cccc(F)c1)c1ccccn1 (stereo unspecified) | 2.3 µM (≈ 0.985 µg/mL) | 9.3 µM (≈ 3.98 µg/mL) | 9.3 µM (≈ 3.98 µg/mL) | 18.7 µM (≈ 8.01 µg/mL) | 74.7 µM (≈ 32 µg/mL) | 26.5 µM | inactive | 16 mm | 7 mm | 11 mm | 4.7 µM (≈ 2.01 µg/mL) | 74.7 µM (≈ 32 µg/mL) | – | –
16 | N/C(=N/NC(CC(=O)c1ccc(-n2ccnc2)cc1)c1ccccc1[N+](=O)[O-])c1ccccn1 (stereo unspecified) | 8.8 µM (≈ 4.01 µg/mL) | 8.8 µM (≈ 4.01 µg/mL) | 17.6 µM (≈ 8.02 µg/mL) | 35.1 µM (≈ 16 µg/mL) | 70.3 µM (≈ 32 µg/mL) | 48 µM | inactive | 13 mm | 6 mm | 4 mm | 8.8 µM (≈ 4.01 µg/mL) | 140 µM (≈ 63.8 µg/mL) | – | –
